Source: ChEMBL document CHEMBL3507680, “University of Dundee, Gates Library screen for HepG2 cell viability”

Assay: Human HepG2 cell viability assay in 384 well format
Assay type: toxicity, cell-based
Set-up: dose 125 nL, time 70.5 hour; concentration not given beside the values
Conditions: HepG2 cells, read-out: Inhibition

Row | Structure (SMILES) | cytotoxicity at 70.5 h [%]
1 | CCC1(CO)CCCN(Cc2nccn2Cc2ccccc2)C1 (stereo not given) | -4.15
2 | O=C(Nc1cc(C(F)(F)F)c[nH]c1=O)N1CCSCC1 | -8.45
3 | CC(CO)NC(=O)c1ccc2[nH]/c(=N\S(C)(=O)=O)sc2c1 (stereo not given) | -3.5
4 | CCN1CCN(C(=O)CCC2CCN(C(C)CSC)CC2)CC1 (stereo not given) | 3.5
5 | Cc1cc(C(=O)N2CCc3nc(N4CCOCC4)nc(C)c3C2)c(C)o1 | -6.78
6 | O=C(C1=CCCC1)N1C[C@@H]2COC[C@]2(COc2ncccc2F)C1 | 6.81
7 | CC(Oc1ccc(S(C)(=O)=O)cc1)C(=O)NC(N)=O (stereo not given) | -7.21
8 | Cc1nn(C2CCS(=O)(=O)C2)c(O)c1Cc1ccc(Br)cc1 (stereo not given) | 19.3
9 | Cc1nc2scc(C)n2c1CNc1ccc(C(=O)O)cc1 | 19.2
10 | Cc1nnsc1-c1nnc2sc(C(C)C)nn12 | 3.22
11 | CCCC(=O)Nc1ccc2c(c1)C1(CCOCC1)CN2CCOC | 18.8
12 | CCc1nc(C)c(CN2CCOC(Cc3ccccc3Cl)C2)[nH]1 (stereo not given) | -6.82
13 | COCc1noc(CN2C[C@H](NS(C)(=O)=O)[C@@H](C3CC3)C2)n1 | -11
14 | O=C(c1ccoc1)N1CCc2c(COCc3ccncc3)cncc2C1 | 8.95
15 | COc1ccc(C(CNC(=O)Nc2cc(C)nn2C)N(C)C)cc1 (stereo not given) | -5.49
16 | O=C1CN(C(=O)C2CCOCC2)CCN1Cc1ccc(Cl)cc1 | 0.576
17 | COC[C@@]12CCC[C@@H]1CN(C(=O)N1CCCC1)C2 | -6.53
18 | COc1ccccc1N1CCN(C(=O)CSC(C)C)C(C)C1 (stereo not given) | -3.04
19 | O=C(c1cn(CCN2CCCCC2)nn1)N1CCCCO1 | 11
20 | COc1ccc(-n2c(CCC(=O)O)nc3ccccc32)cc1CO | 4.28
21 | NC(=O)c1ccc(S(=O)(=O)NC(=O)COc2ccc3c(c2)CCC3)cc1 | -6.16
22 | CC(=O)N1N=C(c2cccs2)OC1C(=O)NCCc1cccc(Cl)c1 (stereo not given) | 28.8
23 | COC(=O)COn1c(SC)nc2ccccc2c1=O | -9.2

Row | Structure (SMILES) | cytotoxicity at 70.5 h [%]
24 | CCC(C)NC(=O)CN1CCOCC1 (stereo not given) | -5.48
25 | Nc1nc2c(c(NC(=O)Nc3cccc(Cl)c3)n1)CCCC2 | 13.3
26 | Cn1cccc1C(=O)N1CCC2(CC1)CC(N1CCOCC1)C2 | -12.5
27 | CC(=O)N1CCN(C(=O)CNc2c(C)cccc2OC(F)F)CC1 | -10.2
28 | CN(CCc1cn[nH]c1)C(=O)C1CC(=O)N(Cc2cccnc2)C1 (stereo not given) | 34.9
29 | N#Cc1ccccc1NC(=O)C1CN(C(=O)c2ccc3c(c2)OCO3)C1 | -7
30 | CN1CCN(C(=O)c2n[nH]c3c2CCN(Cc2nccs2)C3)CC1 | -11.9
31 | CS(=O)(=O)N1C[C@@H]2CC[C@H](C1)N(CCC(=O)NCc1ccccc1F)C2 | 21.2
32 | c1cnn(CC2CN(Cc3nnc(C4CC4)o3)CCO2)c1 (stereo not given) | -4.26
33 | CCn1nc(CC(C)C)cc1C(=O)N1CCC(n2cnnc2)CC1 | 8.59
34 | Cc1nc(CN2CCCC(NCc3nc4ccccc4s3)C2)no1 (stereo not given) | -17.4
35 | COCCOC1CCN(C(=O)NCc2coc3ccccc23)CC1 | -6.59
36 | COc1ccc(C)nc1NC(=O)CCc1c(C)nn(C)c1C | 6.42
37 | CC(C)N(C)Cc1cn2c(n1)CN(C(=O)c1ccc[nH]1)CC2 | -5.19
38 | COc1c(C2CCCN2Cc2nc(-c3ccco3)no2)c(C)nn1C (stereo not given) | -2.62
39 | O=C(CN1CCC(c2cc(=O)n3c(n2)CCCCC3)C1)N1CCCCC1 (stereo not given) | -8.93
40 | Cc1nc(CN2CCCC(c3cc(C(N)=O)[nH]n3)C2)oc1C (stereo not given) | -1.85
41 | Cc1ccc(Oc2ncccc2CNC2CCOCC2)cn1 | -7.51
42 | O=C(CCc1ccccn1)NC1CCCN(C2Cc3ccccc3C2)C1 (stereo not given) | -8.7
43 | Cc1ccc(C(CNC(=O)Nc2cn[nH]c2)N2CCOCC2)o1 (stereo not given) | -1.26
44 | c1cncc(CNc2cncc(C3CCCN3)n2)c1 (stereo not given) | -8.46
45 | CCC(CNS(=O)(=O)c1c[nH]cn1)Oc1ccccc1F (stereo not given) | -2.67
